For 27 compounds, MIC results are on record in ChEMBL document CHEMBL6134788, “Development of naphthalimide hydrazide derivatives as potent antibacterial agents against carbapenem-resistant A. baumannii” (RSC Med Chem, 2024).

Values after ≈ are worked out from the molar mass of the structure shown.

What all share (assay type): functional
Common to all, as to conditions: time 16-18 hrs, read-out: MIC100

In assay [1] the test system is Escherichia coli. As to the kind of experiment: Antibacterial activity against Escherichia coli ATCC 25922 assessed as inhibition of bacterial growth incubated for 16 to 18 hrs by CLSI protocol based method.
Assay [2] concerns Staphylococcus aureus. The assay is described as follows: Antibacterial activity against Staphylococcus aureus ATCC 29213 assessed as inhibition of bacterial growth incubated for 16 to 18 hrs by CLSI protocol based method.
The subject of assay [3] is Klebsiella pneumoniae. As to the kind of experiment: Antibacterial activity against Klebsiella pneumoniae BAA 1705 assessed as inhibition of bacterial growth incubated for 16 to 18 hrs by CLSI protocol based method.
Assay [4] concerns Acinetobacter baumannii. As to the kind of experiment: Antibacterial activity against carbapenem-resistant Acinetobacter baumannii BAA 1605 assessed as inhibition of bacterial growth incubated for 16 to 18 hrs by CLSI protocol based method.
Assay [5] relates to Pseudomonas aeruginosa. As to the kind of experiment: Antibacterial activity against Pseudomonas aeruginosa ATCC 27853 assessed as inhibition of bacterial growth incubated for 16 to 18 hrs by CLSI protocol based method.

For `O=C(CCCCCN1C(=O)c2cccc3cccc(c23)C1=O)NNc1ccccc1`, the MIC in assay [1] was over 64 µg/mL; in assay [2] it was over 64 µg/mL; in assay [3], over 64 µg/mL; in assay [4] it was 8 µg/mL (≈ 19.9 µM); in assay [5], over 64 µg/mL.

For `O=C(CCN1C(=O)c2cccc3cccc(c23)C1=O)NNc1ccccc1Cl`, the MIC in assay [1], in assay [2], in assay [3], in assay [4] and in assay [5] was over 64 µg/mL each time.

For the compound `N#Cc1ccc(NNC(=O)CCCN2C(=O)c3cccc4cccc(c34)C2=O)cc1`, the MIC was over 64 µg/mL in assay [1]; over 64 µg/mL in assay [2]; over 64 µg/mL in assay [3]; 2 µg/mL (≈ 5.02 µM) in assay [4]; over 64 µg/mL in assay [5].

`O=C(CCN1C(=O)c2cccc3cccc(c23)C1=O)NNc1cccc(Br)c1`: the MIC in assay [1], in assay [2], in assay [3], in assay [4] and in assay [5] was over 64 µg/mL in each case.

On to `N#Cc1ccc(NNC(=O)CCN2C(=O)c3cccc4c(Br)ccc(c34)C2=O)cc1`, for which the MIC was over 64 µg/mL in assay [1]; over 64 µg/mL in assay [2]; over 64 µg/mL in assay [3]; 4 µg/mL (≈ 8.63 µM) in assay [4]; over 64 µg/mL in assay [5].

Turning to `N#Cc1ccc(NNC(=O)CCCCCN2C(=O)c3cccc4cccc(c34)C2=O)cc1`, the MIC in assay [1], in assay [2], in assay [3], in assay [4] and in assay [5] was over 64 µg/mL in each case.

With `O=C(CCN1C(=O)c2cccc3cccc(c23)C1=O)NNc1ccccc1`, the MIC in assay [1] was over 64 µg/mL; in assay [2], over 64 µg/mL; in assay [3] it was over 64 µg/mL; in assay [4], 8 µg/mL (≈ 22.3 µM); in assay [5], over 64 µg/mL.

Take `N#Cc1ccc(NNC(=O)CN2C(=O)c3cccc4cccc(c34)C2=O)cc1`: the MIC was over 64 µg/mL in assay [1]; over 64 µg/mL in assay [2]; over 64 µg/mL in assay [3]; 4 µg/mL (≈ 10.8 µM) in assay [4]; over 64 µg/mL in assay [5].

Take `NC[C@H]1O[C@H](O[C@H]2[C@H](O)[C@@H](O[C@H]3O[C@H](CO)[C@@H](O)[C@H](N)[C@H]3O)[C@H](N)C[C@@H]2N)[C@H](N)C[C@@H]1O` [TOBRAMYCIN]: in assay [4], the MIC stood at 4 µg/mL (≈ 8.56 µM).

`O=C(CCN1C(=O)c2cccc3cccc(c23)C1=O)NNc1ccc(Cl)cc1Cl`: the MIC in assay [1], in assay [2], in assay [3], in assay [4] and in assay [5] was over 64 µg/mL in each case.

For the compound `O=C(CCN1C(=O)c2cccc3c(Br)ccc(c23)C1=O)NNc1ccc(Cl)cc1`, the MIC in assay [1] was over 64 µg/mL; in assay [2], over 64 µg/mL; in assay [3], over 64 µg/mL; in assay [4] it was 4 µg/mL (≈ 8.46 µM); in assay [5], over 64 µg/mL.

As for `O=C(CCN1C(=O)c2cccc3cccc(c23)C1=O)NNc1ccc([N+](=O)[O-])cc1`, the MIC in assay [1] is over 64 µg/mL; in assay [2], over 64 µg/mL; in assay [3], over 64 µg/mL; in assay [4] it was 4 µg/mL (≈ 9.89 µM); in assay [5], over 64 µg/mL.

Turning to `COc1ccc(NNC(=O)CCN2C(=O)c3cccc4cccc(c34)C2=O)cc1`, the MIC was over 64 µg/mL in assay [1]; over 64 µg/mL in assay [2]; over 64 µg/mL in assay [3]; 4 µg/mL (≈ 10.3 µM) in assay [4]; over 64 µg/mL in assay [5].

For the compound `O=C(NNc1ccc(Br)cc1)[C@@H](Cc1ccccc1)N1C(=O)c2cccc3cccc(c23)C1=O`, the MIC in assay [1] was over 64 µg/mL; in assay [2], over 64 µg/mL; in assay [3], over 64 µg/mL; in assay [4] it was 8 µg/mL (≈ 15.6 µM); in assay [5] it was over 64 µg/mL.

Turning to `O=C(CCN1C(=O)c2cccc3cccc(c23)C1=O)NNc1cc(F)cc(F)c1`, the MIC in assay [1], in assay [2], in assay [3], in assay [4] and in assay [5] was over 64 µg/mL each time.

For the compound `O=C(NNc1ccccc1)[C@@H](Cc1ccccc1)N1C(=O)c2cccc3cccc(c23)C1=O`, the MIC in assay [1] is over 64 µg/mL; in assay [2], over 64 µg/mL; in assay [3], over 64 µg/mL; in assay [4], 8 µg/mL (≈ 18.4 µM); in assay [5] it was over 64 µg/mL.

For `O=C(CCCN1C(=O)c2cccc3cccc(c23)C1=O)NNc1ccccc1`, the MIC in assay [1] is over 64 µg/mL; in assay [2], over 64 µg/mL; in assay [3], over 64 µg/mL; in assay [4] it was 4 µg/mL (≈ 10.7 µM); in assay [5], over 64 µg/mL.

`O=C(CCN1C(=O)c2cccc3cccc(c23)C1=O)NNc1cc(Cl)cc(Cl)c1`: the MIC in assay [1], in assay [2], in assay [3], in assay [4] and in assay [5] was over 64 µg/mL each time.

`O=C(CCN1C(=O)c2cccc3c(Br)ccc(c23)C1=O)NNc1ccc(Br)cc1`: the MIC is over 64 µg/mL in assay [1]; over 64 µg/mL in assay [2]; over 64 µg/mL in assay [3]; 4 µg/mL (≈ 7.73 µM) in assay [4]; over 64 µg/mL in assay [5].

As for `Cc1ccc(NNC(=O)CCN2C(=O)c3cccc4cccc(c34)C2=O)c(C)c1`, the MIC in assay [1], in assay [2], in assay [3], in assay [4] and in assay [5] was over 64 µg/mL each time.

`O=C(CCN1C(=O)c2cccc3cccc(c23)C1=O)NNc1ccccc1Br`: the MIC in assay [1], in assay [2], in assay [3], in assay [4] and in assay [5] was over 64 µg/mL throughout.

For `O=C(CCN1C(=O)c2cccc3cccc(c23)C1=O)NNc1cccc(F)c1`, the MIC was over 64 µg/mL in assay [1]; over 64 µg/mL in assay [2]; over 64 µg/mL in assay [3]; 1 µg/mL (≈ 2.65 µM) in assay [4]; over 64 µg/mL in assay [5].

As to `O=C(NNc1ccc(Cl)cc1)[C@@H](Cc1ccccc1)N1C(=O)c2cccc3cccc(c23)C1=O`, the MIC in assay [1] is over 64 µg/mL; in assay [2], over 64 µg/mL; in assay [3], over 64 µg/mL; in assay [4] it was 4 µg/mL (≈ 8.51 µM); in assay [5], over 64 µg/mL.

In the case of `Cc1ccc(NNC(=O)CCN2C(=O)c3cccc4cccc(c34)C2=O)cc1`, the MIC in assay [1] is over 64 µg/mL; in assay [2], over 64 µg/mL; in assay [3], over 64 µg/mL; in assay [4], 4 µg/mL (≈ 10.7 µM); in assay [5] it was over 64 µg/mL.

Regarding `N#Cc1ccc(NNC(=O)[C@@H](Cc2ccccc2)N2C(=O)c3cccc4cccc(c34)C2=O)cc1`, the MIC in assay [1] was over 64 µg/mL; in assay [2], over 64 µg/mL; in assay [3], over 64 µg/mL; in assay [4], 16 µg/mL (≈ 34.7 µM); in assay [5] it was over 64 µg/mL.

In the case of `CO[C@H]1/C=C/O[C@@]2(C)Oc3c(C)c(O)c4c(O)c(c(/C=N/N5CCN(C)CC5)c(O)c4c3C2=O)NC(=O)/C(C)=C\C=C\[C@H](C)[C@H](O)[C@@H](C)[C@@H](O)[C@@H](C)[C@H](OC(C)=O)[C@@H]1C` [RIFAMPIN], the MIC in assay [4] turned out to be 4 µg/mL (≈ 4.86 µM).

Take `NCC[C@H](O)C(=O)N[C@@H]1C[C@H](N)[C@@H](O[C@H]2O[C@H](CN)[C@@H](O)[C@H](O)[C@H]2O)[C@H](O)[C@H]1O[C@H]1O[C@H](CO)[C@@H](O)[C@H](N)[C@H]1O` [AMIKACIN]: the MIC in assay [4] was found to be 4 µg/mL (≈ 6.83 µM).
